The text below walks through data of patent publication US9975882B2, “Heteroaromatic compounds as BTK inhibitors” (Boehringer Ingelheim International GmbH, priority 2015, dated 2018).

Structures are written as SMILES. Read-outs that look alike come from different tables or passages of the source.

The test system of data set [1] is mean arterial pressure (MAP). Particulars: rat, in vivo; for 5-Day 24-h MAP Change versus Control: po. On the procedure:
In-Vivo Assay—Comparison Between the Compounds of the Present Invention and Comparative Compounds A, B and C
In a side-by-side in-vivo study, select compounds of the present invention and comparative compounds A-C are evaluated in telemetry-instrumented conscious rats to determine their effects on mean arterial pressure (MAP) at doses at or above therapeutically relevant concentrations.
(§1) All animals (telemetry-instrumented) are single housed in metabolic cages. Rats are acclimated to the metabolic cage for at least 3 days and then dosed with vehicle for up to 4 days. Blood pressure, heart rate, and bodyweight are collected during the baseline period and animals are randomized into 3 groups based on these parameters (n=8-9/group). Treatment groups are: vehicle and test compound (10 mg/kg po and 30 mg/kg po qd); animals are treated with compound for 5 days. […] Mean arterial pressure (MAP) and heart rate (HR) are collected continuously throughout the study. Statistical analyses is performed using GraphPad Prism based on the average 24-hr mean value during five days of compound administration (one-way ANOVA with Dunnett's post-test vs. Vehicle; p<0.05 is considered statistically significant).

Data set [2] can be described thus: Plasma compound exposure in rats (tail bleed, day 6). The format is in vivo. The following applies: rat. On the procedure:
as §1

For data set [3], the target named is human recombinant full length TEC (His-tagged) (Homo sapiens (Human), UniProt P42680). Nature of the data set: TEC Lanthscreen Eu Kinase Binding assay. The following applies: 1 nM TEC.
In data set [4] the target is human recombinant BTK (full length, His-tagged) (Homo sapiens (Human), UniProt Q06187). Nature of the data set: BTK Z'-LYTE assay.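 Note: FRET readout of kinase phosphorylating a coumarin and fluorescein labelled synthetic peptide, detected via protease sensitivity of unphosphorylated versus phosphorylated substrate, incubated at 22 °C in 384-well plates.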 The format is biochemical. Particulars: 25 μM ATP.
Experimental: Z′-LYTE™ Assay (Life Technologies):
(§3) The Z′-Lyte assay employs a FRET-based, coupled-enzyme format and is based on the differential sensitivity of phosphorylated and non-phosphorylated peptides to proteolytic Cleavage. The activity of human recombinant BTK (full length, His-tagged), BMX (full length, His-tagged) or Txk (full length, GST-tagged) is estimated by measuring the phosphorylation of a synthetic FRET peptide substrate labeled with Coumarin and Fluorescein. […] Incubations are carried out at 22° C. in black polypropylene 384-well plates (Corning).
(§4) Representative compounds of the present invention are assessed for inhibition of BTK, BMX, and TXK measuring phosphorylation of a substrate (Z′-LYTE™ assay, Life Technologies) and TEC measuring displacement of a “tracer” (Lanthscreen® Eu Kinase Binding assay, Life Technologies).
In data set [5] the target is human recombinant Txk (full length, GST-tagged) (Homo sapiens (Human), UniProt P42681). Nature of the data set: TXK Z'-LYTE assay.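 Note: FRET read-out of kinase phosphorylation of a synthetic peptide labelled with Coumarin and Fluorescein, scored by protease sensitivity of unphosphorylated peptide, incubated at 22 °C.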 Particulars: read-out: TXK IC50, 100 μM ATP.
Experimental: Z′-LYTE™ Assay (Life Technologies):
as §3, §4
The target of data set [6] is human full length His-tagged BTK (Homo sapiens (Human), UniProt Q06187). Nature of the data set: BTK Lanthscreen Eu Kinase Binding assay. Particulars: 2 nM BTK. On the procedure: BTK Lanthscreen® Eu Kinase Binding Assay:
A Lanthscreen® Eu Kinase Binding assay (Life Technologies) is performed to quantitate the ability of test compounds to bind to BTK. The assay is based on the binding and displacement of Alexa Fluor647-labeled Kinase Tracer #236 to the ATP-binding site of human full length His-tagged BTK (Life Technologies cat #PV3587) with TR-FRET detection using a europium-labeled anti-His antibody. The assay is assembled in 384-well low volume NBS black plates (Corning) where 2 nM BTK and test compound in DMSO at varying concentrations are pre-incubated for 30 min at 28° C. in assay buffer consisting of 50 mM HEPES, pH 7.4, 10 mM MgCl2, 1 mM EGTA. 100 μM Na3VO4 and 0.01% Brij 35. Then, 2 nM of Eu-anti His antibody and 30 nM Kinase Tracer are added and incubated for 60 min at 28° C. Following incubation, TR-FRET signal is read on an Envision plate reader (Excitation: 340 nm; Emissions: 615 and 665 nm). The 665:615 nm emission ratio is calculated and converted to POC compared to control and blank wells.

Data set [7] addresses EGFR (EGFR phosphorylation in A431 cells) (Homo sapiens (Human), UniProt P00533). As to the kind of experiment: Inhibition of EGFR autophosphorylation in A431 human epithelial cells stimulated with EGF. The format is cell-based. Particulars: EGF 60 ng/mL, read-out: A431 p-EGFR IC50. On the procedure: Inhibition of EGFR Autophosphorylation in A431 Human Epithelial Cells Stimulated with Epithelial Growth Factor
A431 cells (ATCC #CRL-1555 FZ) are thawed and plated in DMEM containing 10% FBS in a 384-well tissue culture treated plate at 15,000 cells/well. After incubating for 24 hours at 37° C., 5% CO2, the cells are treated with test compound (1% DMSO final concentration) and incubated for 16 hours at 37° C., 5% CO2. EGF (Millipore, 01-107) is added at a final concentration of 60 ng/mL and incubated for 10 minutes. The medium is removed, the cells are lysed, and phospho EGFR is measured (Meso Scale Diagnostics, N31CB-1).
(§2) Representative compounds of the present invention are tested and show BTK inhibition (Table I). […] Additionally, compounds of the present invention, as represented by examples in Table II, are selective for BTK inhibition over other related kinases. […] In this table the BTK activity is measured by IL-6 production in primary CD19^+ B cells, and the EGFR activity is measured by EGFR phosphorylation in A431 cells.

Data set [8] concerns BTK (IL-6 production in primary CD19+ B cells). As to the kind of experiment: Inhibition of IL-6 production in B cells co-stimulated with ODN 2006 and anti-hIgD. The format is cell-based. Particulars: B-cell, anti-human IgD + ODN 2006. On the procedure:
Inhibition of IL-6 Production in B Cells Co-Stimulated with ODN 2006 and anti-hIgD
Primary CD19+ B cells (AllCells #PB010F) are thawed and plated in RPMI containing 10% HI FBS in a 384-well tissue cultured plate at 20,000 cells/well. The cells are treated with test compound (0.5% DMSO final concentration) and incubated for 1 hour at 37° C., 5% CO2. Cells are then stimulated with 5 ug/mL Goat F(ab′)2 anti-human IgD (SouthernBiotech #2032) and 2 uM ODN 2006 (InvivoGen #tlrl-2006) and incubated for 18-24 hours at 37° C., 5% CO2. IL-6 in the supernatant is measured using Meso Scale Discovery kit #K211AKB-6.
as §2

Sequence of human recombinant full length TEC (His-tagged) (P42680 whole entry): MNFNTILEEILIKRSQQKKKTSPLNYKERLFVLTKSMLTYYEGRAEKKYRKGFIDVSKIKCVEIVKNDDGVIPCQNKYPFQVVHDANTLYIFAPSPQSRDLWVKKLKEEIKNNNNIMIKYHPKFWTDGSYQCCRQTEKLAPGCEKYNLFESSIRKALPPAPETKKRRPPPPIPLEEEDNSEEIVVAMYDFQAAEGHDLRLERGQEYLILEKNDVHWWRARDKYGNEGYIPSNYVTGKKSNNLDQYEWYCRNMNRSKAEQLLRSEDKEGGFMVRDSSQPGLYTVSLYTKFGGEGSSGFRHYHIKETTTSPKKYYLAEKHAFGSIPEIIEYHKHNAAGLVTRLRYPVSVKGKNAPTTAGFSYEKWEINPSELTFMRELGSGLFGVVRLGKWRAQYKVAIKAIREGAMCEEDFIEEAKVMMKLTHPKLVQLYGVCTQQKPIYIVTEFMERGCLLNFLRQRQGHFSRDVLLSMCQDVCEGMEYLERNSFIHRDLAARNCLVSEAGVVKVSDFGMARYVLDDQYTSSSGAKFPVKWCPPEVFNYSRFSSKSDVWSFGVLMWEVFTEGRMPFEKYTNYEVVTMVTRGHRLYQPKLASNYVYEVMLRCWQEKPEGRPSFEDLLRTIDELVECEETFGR
Sequence of human recombinant Txk (full length, GST-tagged) (P42681 whole entry): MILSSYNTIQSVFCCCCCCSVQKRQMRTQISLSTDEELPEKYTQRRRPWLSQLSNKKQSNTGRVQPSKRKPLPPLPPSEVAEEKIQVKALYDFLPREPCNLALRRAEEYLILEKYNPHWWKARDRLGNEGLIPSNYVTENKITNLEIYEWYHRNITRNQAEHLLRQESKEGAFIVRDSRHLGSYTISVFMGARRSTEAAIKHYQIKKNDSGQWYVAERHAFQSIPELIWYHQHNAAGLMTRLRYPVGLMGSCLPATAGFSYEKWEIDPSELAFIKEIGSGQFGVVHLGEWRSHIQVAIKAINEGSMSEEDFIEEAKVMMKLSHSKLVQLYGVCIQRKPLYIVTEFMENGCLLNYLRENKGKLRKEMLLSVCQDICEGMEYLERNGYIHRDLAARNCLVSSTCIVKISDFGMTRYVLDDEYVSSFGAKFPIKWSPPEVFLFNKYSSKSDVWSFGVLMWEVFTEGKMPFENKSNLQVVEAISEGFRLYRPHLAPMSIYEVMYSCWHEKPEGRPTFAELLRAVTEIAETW
Sequence of EGFR (EGFR phosphorylation in A431 cells) (P00533 25-1210): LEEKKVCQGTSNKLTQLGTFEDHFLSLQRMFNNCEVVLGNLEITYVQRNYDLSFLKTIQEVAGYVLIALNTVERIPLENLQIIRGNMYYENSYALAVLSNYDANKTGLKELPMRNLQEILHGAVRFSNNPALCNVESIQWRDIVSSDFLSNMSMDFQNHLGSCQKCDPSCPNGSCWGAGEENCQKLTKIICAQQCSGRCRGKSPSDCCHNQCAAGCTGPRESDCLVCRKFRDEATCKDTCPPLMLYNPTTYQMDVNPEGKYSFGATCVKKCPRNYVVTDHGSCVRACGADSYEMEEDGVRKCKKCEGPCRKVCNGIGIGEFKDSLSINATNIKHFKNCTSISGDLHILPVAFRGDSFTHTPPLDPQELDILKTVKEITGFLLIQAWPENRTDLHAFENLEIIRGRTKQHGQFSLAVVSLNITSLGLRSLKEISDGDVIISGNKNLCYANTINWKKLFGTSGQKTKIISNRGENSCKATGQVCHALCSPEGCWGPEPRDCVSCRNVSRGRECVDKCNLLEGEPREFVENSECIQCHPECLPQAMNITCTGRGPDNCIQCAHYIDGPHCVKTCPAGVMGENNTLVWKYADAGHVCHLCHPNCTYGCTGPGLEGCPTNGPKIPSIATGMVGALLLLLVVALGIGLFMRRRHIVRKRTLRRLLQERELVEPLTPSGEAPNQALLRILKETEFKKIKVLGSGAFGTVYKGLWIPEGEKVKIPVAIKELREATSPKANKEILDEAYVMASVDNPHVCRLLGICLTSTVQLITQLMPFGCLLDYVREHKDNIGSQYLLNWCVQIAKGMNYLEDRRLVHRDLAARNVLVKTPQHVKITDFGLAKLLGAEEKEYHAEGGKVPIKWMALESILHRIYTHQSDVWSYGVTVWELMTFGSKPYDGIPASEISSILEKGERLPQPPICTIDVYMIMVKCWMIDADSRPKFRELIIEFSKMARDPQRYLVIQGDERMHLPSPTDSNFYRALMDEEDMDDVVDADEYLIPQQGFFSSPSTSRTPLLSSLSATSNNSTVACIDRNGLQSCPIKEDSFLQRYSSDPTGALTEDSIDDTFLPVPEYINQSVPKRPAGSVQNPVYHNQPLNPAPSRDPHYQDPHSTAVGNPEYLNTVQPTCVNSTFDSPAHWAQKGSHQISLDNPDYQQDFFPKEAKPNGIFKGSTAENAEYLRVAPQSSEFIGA
Sequence of human recombinant BTK (full length, His-tagged) (Q06187 whole entry): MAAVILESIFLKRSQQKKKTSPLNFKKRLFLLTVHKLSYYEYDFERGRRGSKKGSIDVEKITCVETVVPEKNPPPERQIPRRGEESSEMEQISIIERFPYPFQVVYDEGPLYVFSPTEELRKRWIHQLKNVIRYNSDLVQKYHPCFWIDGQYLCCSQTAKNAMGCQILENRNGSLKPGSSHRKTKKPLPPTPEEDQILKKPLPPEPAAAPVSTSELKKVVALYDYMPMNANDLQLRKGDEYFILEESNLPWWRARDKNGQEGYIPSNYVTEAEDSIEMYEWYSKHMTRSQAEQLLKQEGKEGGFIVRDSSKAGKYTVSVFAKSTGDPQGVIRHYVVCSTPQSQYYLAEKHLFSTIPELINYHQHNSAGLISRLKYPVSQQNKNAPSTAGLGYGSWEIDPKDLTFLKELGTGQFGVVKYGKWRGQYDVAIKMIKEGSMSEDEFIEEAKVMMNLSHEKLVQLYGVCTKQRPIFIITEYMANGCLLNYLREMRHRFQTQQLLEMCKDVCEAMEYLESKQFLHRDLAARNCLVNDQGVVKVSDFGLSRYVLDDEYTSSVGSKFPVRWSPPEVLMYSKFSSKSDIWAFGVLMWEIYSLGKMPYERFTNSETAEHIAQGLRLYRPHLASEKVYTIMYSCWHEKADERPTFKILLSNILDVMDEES
Sequence of human full length His-tagged BTK (Q06187 whole entry): as above

For the compound `C=CC(=O)N1CCC[C@@H](n2nc(-c3ccc(Oc4ccccc4)cc3)c3c(N)ncnc32)C1` [Compound A, 1-[(3R)-3-[4-amino-3-(4-phenoxyphenyl)pyrazolo[3,4-d]pyrimidin-1-yl]-1-piperidyl]prop-2-en-1-one], the “effect on mean arterial pressure (MAP)” value in data set [1] is “statistically significant increases in MAP”. Moreover, the “5-Day 24-h MAP Change versus Control” value in data set [1] (10 mg/kg, 5 days) is given as 3 ± 1 mmHg; in data set [1] (30 mg/kg, 5 days) it was 4 ± 1 mmHg. Besides, the Cmax in data set [2] (plasma, 10 mg/kg po qd) was 319 ± 36 nM; in data set [2] (plasma, 30 mg/kg po qd), 561 ± 183 nM.

Take `CC#CC(=O)N1CCC2(CC(n3nc(-c4ccc(OC(C)C)cc4)c(C(N)=O)c3N)C2)C1` (stereo not drawn) [Compound B, 5-amino-1-(7-but-2-ynoyl-7-azaspiro[3.4]octan-2-yl)-3-(4-isopropoxyphenyl) pyrazole-4-carboxamide]: the IC50 in data set [3] is 44 nM; in data set [4], 0.9 nM. The “effect on mean arterial pressure (MAP)” value in data set [1] is recorded as “statistically significant increases in MAP”. Moreover, the “5-Day 24-h MAP Change versus Control” value in data set [1] (10 mg/kg) is on record as 3 ± 1 mmHg; in data set [1] (30 mg/kg), 2 ± 1 mmHg. The Cmax in data set [2] (10 mg/kg po qd) is 182 ± 17 nM; in data set [2] (30 mg/kg po qd), 480 ± 53 nM.

As for `C=CC(=O)Nc1cccc(Nc2nc(Nc3ccc(OCCOC)cc3)ncc2F)c1` [Compound C, N-(3-(5-fluoro-2-(4-(2-methoxyethoxy)phenylamino)pyrimidin-4-ylamino)phenyl)acrylamide], the figures for the IC50 in data set [5] and in data set [3] were 22 nM and 6.8 nM, respectively. The “effect on mean arterial pressure (MAP)” value in data set [1] is given as “statistically significant increases in MAP”. Moreover, the “5-Day 24-h MAP Change versus Control” value in data set [1] (10 mg/kg, 5 days) came out at 4 ± 1 mmHg; in data set [1] (30 mg/kg, 5 days), 5 ± 1 mmHg. For the same compound, the Cmax is 644 ± 96 nM in data set [2] (plasma, 10 mg/kg po qd) and 1730 ± 434 nM in data set [2] (plasma, 30 mg/kg po qd).

As to `CC#CC(=O)N1CC[C@]2(C1)C[C@H](n1nc(-c3cnn(Cc4ccccc4C(F)(F)F)c3)c(C(N)=O)c1N)C2` [Example 12], the IC50 in data set [5] is 130 nM; in data set [3] it was 92 nM; in data set [6] it was 0.5 nM; in data set [7], greater than 10000 nM; in data set [8], 0.5 nM; in data set [4], 1.7 nM. For the same compound, the “5-Day 24-h MAP Change versus Control” value in data set [1] (10 mg/kg) and in data set [1] (30 mg/kg) was “No statistically significant” each time. Further, the Cmax in data set [2] (plasma, 10 mg/kg po qd) amounted to 111 ± 37 nM; in data set [2] (plasma, 30 mg/kg po qd), 344 ± 106 nM.

On to `CC#CC(=O)N1CC[C@]2(C1)C[C@H](n1nc(-c3cnn(Cc4cccc(C(F)(F)F)c4)c3)c(C(N)=O)c1N)C2` [Example 22], for which the IC50 is 46 nM in data set [5]; 21 nM in data set [3]; 0.3 nM in data set [6]; greater than 10000 nM in data set [7]; 0.8 nM in data set [8]; 0.7 nM in data set [4]. In addition, the “5-Day 24-h MAP Change versus Control” value in data set [1] (10 mg/kg) and in data set [1] (30 mg/kg) was “No statistically significant” each time. Further, the Cmax in data set [2] (plasma, 10 mg/kg po qd) was found to be 170 ± 29 nM; in data set [2] (plasma, 30 mg/kg po qd) it was 720 ± 262 nM.

In the case of `CC#CC(=O)N1CC[C@]2(C1)C[C@H](n1nc(-c3cnn(Cc4ccccc4)c3)c(C(N)=O)c1N)C2` [Example 44], the concentration for half-maximal inhibition (IC50) in data set [5] was 78 nM; in data set [3], 20 nM; in data set [6], 0.3 nM; in data set [7], greater than 10000 nM; in data set [8] it was 0.7 nM; in data set [4] it was 1.4 nM.

For `CC#CC(=O)N1CC2(CC(n3nc(-c4cnn(Cc5cccc(C(F)(F)F)c5)c4)c(C(N)=O)c3N)C2)C1` [Example 47], the IC50 was 310 nM in data set [5]; 34 nM in data set [3]; 0.5 nM in data set [6]; greater than 10000 nM in data set [7]; 1.1 nM in data set [8]; 2.7 nM in data set [4].

As to `CC#CC(=O)N1CC[C@]2(C1)C[C@H](n1nc(-c3cnn(Cc4cccc(C5CC5)c4)c3)c(C(N)=O)c1N)C2` [Example 51], the IC50 is 12 nM in data set [5]; 18 nM in data set [3]; 0.3 nM in data set [6]; greater than 10000 nM in data set [7]; 1.9 nM in data set [8]; 0.8 nM in data set [4].

In the case of `CC#CC(=O)N1CC[C@]2(C1)C[C@H](n1nc(-c3cn(Cc4cccc(C)c4)nc3C)c(C(N)=O)c1N)C2` [Example 52], the concentration for half-maximal inhibition (IC50) in data set [5] was 260 nM; in data set [3] it was 100 nM; in data set [6] it was 1.2 nM; in data set [7], greater than 10000 nM; in data set [8], 0.5 nM; in data set [4] it was 7 nM.

Regarding `CC#CC(=O)N1CC[C@]2(C1)C[C@H](n1nc(-c3cnn(Cc4cccc(F)c4Cl)c3)c(C(N)=O)c1N)C2` [Example 53], the IC50 in data set [5] was 84 nM; in data set [3], 47 nM; in data set [6], 0.3 nM; in data set [7], greater than 10000 nM; in data set [8], 0.4 nM; in data set [4] it was 1.3 nM.

For the compound `CC#CC(=O)N1CC[C@]2(C1)C[C@H](n1nc(-c3cnn(Cc4ccccc4Cl)c3)c(C(N)=O)c1N)C2` [Example 54], the IC50 in data set [5] was 110 nM; in data set [3], 35 nM; in data set [6], 0.5 nM; in data set [7], greater than 10000 nM; in data set [8], 0.4 nM; in data set [4], 1.5 nM.

Turning to `CC#CC(=O)N1CC[C@]2(C1)C[C@H](n1nc(-c3cnn(Cc4cc(F)ccc4Cl)c3)c(C(N)=O)c1N)C2` [Example 55], the IC50 in data set [5] was 79 nM; in data set [3], 67 nM; in data set [6], 0.7 nM; in data set [7] it was greater than 10000 nM; in data set [8], 1.5 nM; in data set [4], 2.5 nM.

For `CC#CC(=O)N1CC[C@]2(C1)C[C@H](n1nc(-c3cnn(Cc4cccc(F)c4C(F)(F)F)c3)c(C(N)=O)c1N)C2` [Example 56], the IC50 is 150 nM in data set [5]; 120 nM in data set [3]; 0.6 nM in data set [6]; greater than 10000 nM in data set [7]; 0.7 nM in data set [8]; 2.2 nM in data set [4].

`CC#CC(=O)N1CC[C@]2(C1)C[C@H](n1nc(-c3cnn(Cc4ccccc4F)c3)c(C(N)=O)c1N)C2` [Example 60]: the IC50 was 100 nM in data set [5]; 35 nM in data set [3]; 0.5 nM in data set [6]; greater than 10000 nM in data set [7]; 0.6 nM in data set [8]; 1.7 nM in data set [4].
